Reference: patent US6537576B1, “Biologically active composition” (Bioglan AB, priority 1998, dated 2003)

Assay: Solubility of piroxicam in PEG400 (HPLC)
Assay type: physicochemical
Conditions: piroxicam in PEG400, excess stirred 2 weeks at room temperature, HPLC analysis

`CN1C(C(=O)Nc2ccccn2)=C(O)c2ccccc2S1(=O)=O` [piroxicam] gave a solubility of 1.6%.
